Patent US4232148A, “6-Deoxyneamines” (The Upjohn Company, priority 1979, dated 1980)
Values after ≈ are worked out from the molar mass of the structure shown. Read-outs that look alike come from different tables or passages of the source.

Columns and labels:
Type in all cases: cell-based
[1] = tested on: S. schottmeulleri UC 126; experiment: standard disc plate assay, zone of inhibition; conditions: 12.5 mm paper discs, read-out: Zones of Inhibition; for zone of inhibition at 1000 µg/mL: 1 mg/ml
From the text: (§1) The compounds of formulas (V, VII, IX, XI, XIV, XVI, and XIX) are active as antibacterials and can be used in various environments to erradicate or control susceptible microorganisms. Tables I and II set forth the in vitro antibacterial test results for representative compounds of the present invention. The results were obtained with a standard disc plate assay using 12.5 mm paper discs.

[2] = tested on: S. pneumoniae I UC 41; experiment: standard microplate test in BHI Agar, MIC; conditions: Streptococcus pneumoniae, UC41, 37°, 20 hours, read-out: Minimum Inhibitory Concentration
Method: (§2) The compounds VII, XI, XVβ, XVα and XVI were tested in a standard microplate test in BHI (Brain Heart Infusion) Agar at a concentration of 1 mg./ml. and dilutions thereof at 37° incubation temperature. The end points are read at 20 hours. BHI Agar is supplied by Difco Laboratories, Detroit, Mich., U.S.A. and has the following compositions:
(§3) Calf brains, infusion from: 200 gm.
(§4) Beef heart, infusion from: 250 gm.
(§5) Bacto Proteose-peptone, Difco: 10 gm.
(§6) Bacto-Dextrose, Difco: 1 gm.
(§7) Disodium phosphate: 2.5 gm.

[3] = tested on: P. vulgaris UC 93; experiment: standard microplate test in BHI Agar, MIC; conditions: Proteus vulgaris, UC93, 37°, 20 hours
Method: as §2, §3, §4, §5, §6, §7

[4] = tested on: P. morganii UC 3186; experiment: standard microplate test in BHI Agar, MIC; conditions: Morganella morganii, UC3186, 20 h
Method: as §2, §3, §4, §5, §6, §7

[5] = tested on: P. mirabilis UC 6671; experiment: standard microplate test in BHI Agar, MIC; conditions: Proteus mirabilis, UC6671, 37°, 20 hours
Method: as §2, §3, §4, §5, §6, §7

[6] = tested on: S. schottmuelleri UC 126; experiment: standard microplate test in BHI Agar, MIC; conditions: 37°, 20 hours
Method: as §2, §3, §4, §5, §6, §7

[7] = tested on: E. coli UC 45; experiment: standard microplate test in BHI Agar, MIC; conditions: Escherichia coli, UC45, 37°, 20 hours, read-out: Minimum Inhibitory Concentration
Method: as §2, §3, §4, §5, §6, §7

[8] = tested on: S. flexneri UC 143; experiment: standard microplate test in BHI Agar, MIC; conditions: Shigella flexneri, UC143, 37°, 20 hours
Method: as §2, §3, §4, §5, §6, §7

[9] = tested on: S. faecalis UC 694; experiment: standard microplate test in BHI Agar, MIC; conditions: Enterococcus faecalis
Method: as §2, §3, §4, §5, §6, §7

[10] = tested on: S. aureus UC 80; experiment: standard disc plate assay, zone of inhibition; conditions: Staphylococcus aureus, UC80, read-out: Zones of Inhibition, 1 mg/ml; 12.5 mm paper discs
From the text: as §1

[11] = tested on: S. aureus UC 76; experiment: standard microplate test in BHI Agar, MIC; conditions: Staphylococcus aureus, UC76, 20 h, read-out: Minimal Inhibitory Concentration
Method: as §2, §3, §4, §5, §6, §7

[12] = tested on: D. pneumoniae UC 41; experiment: standard microplate test in BHI Agar, MIC; conditions: Streptococcus pneumoniae, UC41, 37°, 20 hours, read-out: Minimal Inhibitory Concentration
Method: as §2, §3, §4, §5, §6, §7

[13] = tested on: E. coli UC 311; experiment: standard microplate test in BHI Agar, MIC; conditions: Escherichia coli, UC311, 20 h, read-out: Minimal Inhibitory Concentration
Method: as §2, §3, §4, §5, §6, §7

[14] = tested on: S. marcescens UC 131; experiment: standard microplate test in BHI Agar, MIC; conditions: Serratia marcescens, UC131, 37°, 20 hours
Method: as §2, §3, §4, §5, §6, §7

[15] = tested on: E. coli UC 51; experiment: standard disc plate assay, zone of inhibition; conditions: Escherichia coli, 12.5 mm paper discs
From the text: as §1

[16] = tested on: S. pyogenes UC 152; experiment: standard microplate test in BHI Agar, MIC; conditions: Streptococcus pyogenes, UC152, 20 h
Method: as §2, §3, §4, §5, §6, §7

[17] = tested on: K. pneumoniae UC 58; experiment: standard microplate test in BHI Agar, MIC; conditions: Klebsiella pneumoniae, UC58, 20 h
Method: as §2, §3, §4, §5, §6, §7

[18] = tested on: S. typhi UC 215; experiment: standard microplate test in BHI Agar, MIC; conditions: Salmonella enterica, 20 h, read-out: Minimal Inhibitory Concentration
Method: as §2, §3, §4, §5, §6, §7

[19] = tested on: B. cereus UC 3145; experiment: standard disc plate assay, zone of inhibition; conditions: Bacillus cereus, UC3145, read-out: Zones of Inhibition, 1 mg/ml; 12.5 mm paper discs
From the text: as §1

[20] = tested on: S. lutea UC 130; experiment: standard disc plate assay, zone of inhibition; conditions: Micrococcus luteus, UC130, read-out: Zones of Inhibition
From the text: as §1

[21] = read-out: Minimum Inhibitory Concentration
[22] = UC694, 20 h, read-out: Minimal Inhibitory Concentration
[23] = read-out: Minimal Inhibitory Concentration

| Compound | zone of inhibition at 1000 µg/mL [1] [mm] | MIC [2] [µg/mL] | MIC [3, 21] [µg/mL] | MIC [4, 21] [µg/mL] | MIC [5, 21] [µg/mL] | MIC [6, 21] [µg/mL] | MIC [7] [µg/mL] | MIC [8, 21] [µg/mL] | MIC [9, 22] [µg/mL] | MIC [6, 23] [µg/mL] | MIC [8, 23] [µg/mL] | MIC [11] [µg/mL] | MIC [12] [µg/mL] | further results |
| --- | --- | --- | --- | --- | --- | --- | --- | --- | --- | --- | --- | --- | --- | --- |
| NC[C@H]1O[C@H](O[C@@H]2[C@@H](N)C[C@@H](N)C[C@@H]2O)[C@H](N)[C@@H](O)[C@@H]1O [6-Deoxy-5-epineamine] | 21 | – | – | – | – | – | – | – | – | – | – | – | – | – |
| NC[C@H]1O[C@H](O[C@H]2[C@H](O)C[C@H](N)C[C@@H]2N)[C@H](N)[C@@H](O)[C@@H]1O [6-deoxyneamine, 6-Deoxyneamine] | – | 62.5 (≈ 204 µM) | 31.2 (≈ 102 µM) | 62.5 (≈ 204 µM) | 62.5 (≈ 204 µM) | 31.2 (≈ 102 µM) | 31.2 (≈ 102 µM) | 62.5 (≈ 204 µM) | – | – | – | – | – | – |
| NC[C@H]1O[C@H](O[C@@H]2[C@@H](N)C[C@@H](N)C[C@H]2O[C@@H]2C[C@@H](N)[C@H](O)[C@@H](CO)O2)[C@H](N)[C@@H](O)[C@@H]1O [Compound XVI, O-2,6-Diamino-2,6-dideoxy-α-D-glucopyranosyl (1→4)-O-[3-amino-2,3-dideoxy-α-D-arabinohexopyranosyl(1→5)-2,6-dideoxy-D-streptamine]] | 15 | – | – | – | – | – | – | – | > 500 | > 500 | > 500 | – | – | zone of inhibition at 1000 µg/mL [10]: 21 mm |
| NC[C@H]1O[C@H](O[C@@H]2[C@@H](N)C[C@@H](N)C[C@H]2OC2O[C@H](CO)[C@@H](O)[C@H]2O)[C@H](N)[C@@H](O)[C@@H]1O (single isomer, unassigned) [Compound XVβ, O-2,6-Diamino-2,6-dideoxy-α-D-glucopyranosyl (1→4)-O-[β-D-ribofuranosyl(1→5)]-2,6-dideoxy-D-streptamine] | 24 | – | – | – | – | – | – | – | – | 7.8 (≈ 17.8 µM) | 31.2 (≈ 71.2 µM) | 31.2 (≈ 71.2 µM) | 15.6 (≈ 35.6 µM) | MIC [3, 23]: 31.2 µg/mL (≈ 71.2 µM); MIC [5, 23]: 125 µg/mL (≈ 285 µM); MIC ([9]; UC694, BHI Agar, 37°, 20 hours, read-out: Minimal Inhibitory Concentration): 500 µg/mL (≈ 1140 µM); MIC [13]: 31.2 µg/mL (≈ 71.2 µM); MIC [14, 23]: 62.5 µg/mL (≈ 143 µM); zone of inhibition at 100 µg/mL ([1]; 0.1 mg/ml): 16 mm; zone of inhibition at 100 µg/mL ([15]; UC51, 0.1 mg/ml, read-out: Zones of Inhibition): 20 mm |
| C[C@@]1(O)C[C@H](N)C[C@H](N)[C@H]1O[C@H]1O[C@H](CN)[C@@H](O)[C@H](O)[C@H]1N [6-Deoxy-5-methylneamine, 6-Deoxy-5-methyl-neamine] | 21 | 62.5 (≈ 195 µM) | 62.5 (≈ 195 µM) | 125 (≈ 390 µM) | 250 (≈ 780 µM) | 62.5 (≈ 195 µM) | 125 (≈ 390 µM) | 125 (≈ 390 µM) | – | – | – | – | – | MIC ([9]; UC694, 20 h, read-out: Minimum Inhibitory Concentration): > 500 µg/mL; MIC [16, 21]: 7.8 µg/mL (≈ 24.3 µM); MIC [17, 21]: 15.6 µg/mL (≈ 48.7 µM); MIC [14, 21]: 125 µg/mL (≈ 390 µM) |
| NC[C@H]1O[C@H](O[C@@H]2[C@@H](N)C[C@@H](N)C[C@H]2OC2O[C@H](CO)[C@@H](O)[C@H]2O)[C@H](N)[C@@H](O)[C@@H]1O (single isomer, unassigned) [Compound XVα, O-2,6-Diamino-2,6-dideoxy-α-D-glucopyranosyl (1→4)-O-[α-D-ribofuranosyl(1→5)]-2,6-dideoxy-D-streptamine] | 20 | – | – | – | – | – | – | – | > 500 | 125 (≈ 285 µM) | 500 (≈ 1140 µM) | 125 (≈ 285 µM) | 125 (≈ 285 µM) | MIC [4, 23]: 125 µg/mL (≈ 285 µM); MIC [18]: 62.5 µg/mL (≈ 143 µM); MIC [16, 23]: 31.2 µg/mL (≈ 71.2 µM); MIC [17, 23]: 15.6 µg/mL (≈ 35.6 µM); zone of inhibition at 1000 µg/mL [19]: 20 mm; zone of inhibition at 1000 µg/mL [20]: 16 mm; zone of inhibition at 1000 µg/mL ([15]; UC51, read-out: Zones of Inhibition, 1 mg/ml): 24 mm |
